In assay [1] the test system is HCELL/CD44 activity on human hematopoietic KG1a cells. In words: Stamper-Woodruff adhesion assay, L-selectin-dependent lymphocyte adherence to KG1a cells. The assay is classed as cell-based. As to conditions: for relative potency as inhibitor of HCELL activity: 4-F-GlcNAc vs swainsonine, tunicamycin vs both. The text has this: To study the effects of 4-F-GlcNAc on the function of the L-selectin binding activity of CD44 (HCELL), we employed the shear-based, Stamper-Woodruff adhesion assay to examine the ability of 4-F-GlcNAc-treated KG1a cells to support L-selectin-dependent lymphocyte adherence. This assay is utilized to specifically assess the shear-dependent binding interactions between L-selectin naturally expressed on lymphocytes and HCELL expressed on KG1a cells (Dimitroff, C. J. et al. (2000) Proc. Nat. Acad. Sci., 97(25):13841–46; Sackstein, R. and Dimitroff, C. J. (2000) Blood, 96: 2765–74.). Before treating KG1a cells with 0.05, 0.1 or 0.5 mM 4-F-GlcNAc, we first pretreated KG1a cells with Vibrio cholerae neuraminidase (0.1 U/ml for 1 hr at 37° C.) to cleave all terminal α2,3 sialic acid-bearing residues and eliminate all HCELL activity. Glutaraldehyde-fixed monolayers of KG1a cells that were first treated with Vibrio cholerae neuraminidase (0.1 U/ml for 1 hr at 37° C.) then re-cultured in the presence of 4-F-GlcNAc (0.05–0.5 mM) for 30 hr at 37° C. Metabolic inhibitors swainsonine, an inhibitor of α-mannosidase II, tunicamycin, an inhibitor of N-acetylglucosamine phosphototransferase, were also utilized to compare the relative potencies of known glycosylation inhibitors. Human peripheral blood lymphocytes (5×10^6cells/ml RPMI1640 w/o NaBicarbonate/5%FBS) were overlayed onto KG1a monolayers at 80 rpm for 30 min. at 4° C., and after gently washing in PBS, lymphocytes bound to cell monolayers were fixed in 3% glutaraldehyde. Re-expression of HCELL activity or HECA-452-reactive CD44 on KG1a cells was determined after […] of 4-F-GlcNAc treatment. Bound lymphocytes were quantified at 100× magnification from a minimum of 5 fields from 2 slides, and the mean number of lymphocytes (standard error of the mean) was calculated.

Assay [2] concerns HECA-452 epitopes on PSGL-1. In words: Western blot of HECA-452 epitopes on PSGL-1 of CLA+ T-cells. In kind it is cell-based, human. Here is the method:
For analysis of CLA expression on T-cells treated with glycoconjugate modifiers, CLA^+ T-cells were first pretreated with neuraminidase (0.1 U/ml at 37° C. for 1 h) to eliminate functional CLA and cleave all HECA-452 reactive epitopes from the cell surface (35–38). Since we wanted to investigate whether these compounds directly affected CLA expression and function, neuraminidase pretreatment followed by incubations with glycosylation modifiers allowed for examination of de novo synthesized CLA/HECA-452 epitopes re-expressed on the cell surface. After neuraminidase digestion, cells were then incubated with tunicamycin (0.02 mM) (an inhibitor of GlcNAc phosphotransferase, the initial step of N-glycosylation), swainsonine (0.23 mM) (an inhibitor of α-mannosidase II and complex-type N-glycosylation), 4-F-GlcNAc (0.05 mM) (putative inhibitor of poly-N-acetyllactosamine biosynthesis), BAG (an inhibitor of O-glycan biosynthesis) (<2 mM) or GlcNAc (5 mM) (negative control, naturally-occurring metabolic counterpart of 4-F-GlcNAc)for 30 h in the presence of human recombinant IL-2. […] Concentrations for BAG were selected based on maximal O-glycosylation inhibitory effects at non-growth inhibitory concentrations as previously reported (39). To determine a suitable concentration of 4-F-GlcNAc for examining glycoconjugate-modifying effects without influencing cell growth or protein synthesis, we performed preliminary growth inhibitory experiments of cells incubated with 4-F-GlcNAc for 2 cell doublings (˜36 h) at 37° C. (cell viability assessed by Trypan-blue exclusion).
For lysate preparation, cells (including radiolabeled cells) were washed 3× in ice cold PBS and lysed in buffer containing 150 mM NaCl, 50 mM Tris-HCl pH 7.4, 1 mM EDTA, 0.02% NaAzide, 20 μg/ml PMSF, Complete™ protease inhibitors cocktail tablets (Roche Molecular Biochemicals) and 2% NP-40 (250 μl/10^8 cells). Following 2 h incubation on ice, insoluble cellular debris was pelleted by centrifugation for 30 min at 10,000×g at 4° C. and solubilized protein lysate was collected and quantified by Bradford protein assay (Sigma Chemical). SDS was added to a final concentration of 1% in lysate preparations utilized for immunoprecipitation experiments.
For SDS-PAGE and Western blotting, cell lysates, membrane proteins or immunoprecipitates were diluted and boiled in reducing sample buffer, and separated on 7–9% SDS-PAGE gels. Resolved protein was transferred to Sequi-blot™ PVDF membrane (Bio-Rad, Inc., Hercules, Calif.) and blocked with FBS for 1 hr at RT. Blots were incubated with rat IgM anti-human CLA HECA-452 (1 μg/ml), mouse IgG anti-human PSGL-1 moAbs PL-2 (1 μg/ml), 203, 4F9 and 4D8 (1 μg each/ml), or mouse IgG anti-human CD43 L60 (1 μg/ml) for 1 hr at RT. Isotype control immunoblots using either rat IgM or mouse IgG were performed in parallel to evaluate non-specific reactive proteins. After three washes with PBS/0.1%Tween-20 (10 min/wash), blots were incubated with the respective secondary Ab, AP-conjugated goat anti-rat IgM (1:400) or goat anti-mouse IgG (1:8000). AP substrate, Western Blue® (Promega, Madison, Wis.) was then added to develop blots.
Cells were then re-cultured in the presence of glycosylation inhibitor, diluent control (PBS) or molecular control (GlcNAc) for 30 hr and then harvested for CLA expression and functional analysis. […] To assess the duration of anti-carbohydrate effects on HECA-452 expression on PSGL-1, cells treated with 4-F-GlcNAc for 30 h and were then re-cultured in non-4-F-GlcNAc-containing medium for 72 h.
On the technique in general: In western blotting, separated proteins are transferred to a membrane and probed.

Assay [3] concerns terminal GlcNAc or GlcNAcβ1,4GlcNAc (WGA staining). The assay is described as follows: Lectin blot with WGA of CLA+ T-cell lysates. The assay is classed as cell-based, human. Conditions: compared with PBS or GlcNAc treatments. Here is the method: For lectin blotting, cell lysates (25 μg/spot) were spotted onto methanol-permeabilized PVDF membrane and blocked in FBS for 1 h at RT. Blots were then probed with AP-Canavalia ensiformis agglutinin (ConA) (2.0 μg/ml PBS; specificity: α-mannose), AP-Triticum vulgaris (Wheat germ) agglutinin (WGA) (0.5 μg/ml PBS; specificity: terminal GlcNAc or GlcNAcβ1,4GlcNAc) or AP-Lycopersicon esculentum (tomato lectin) agglutinin (LEA) (1.0 μg/ml PBS; specificity: (Galβ1,4GlcNAc)n) for 1 h at RT (All lectins from EY Labs., Inc., San Mateo, Calif.). After washing 3× in PBS/0.1% Tween-20 and 1× in PBS (10 min each), blots were developed with Western Blue®.
To analyze and identify the glycan modifications on CLA^+ T-cells treated with 4-F-GlcNAc, lectin blotting experiments were performed with ConA (Specificity: α-mannose), WGA (Specificity: terminal GlcNAc or GlcNAcβ1,4GlcNAc) and LEA (Specificity: {Galβ1,4GlcNAc}n).

Setting [4] is: 30 h after neuraminidase, tunicamycin 0.02 mM, swainsonine 0.23 mM, 4-F-GlcNAc 0.05 mM, BAG 2.0 mM, GlcNAc 5.0 mM.

Like-named read-outs stand apart in the source and are kept apart here.

What is called inhibition is how much of the control response was suppressed.

Take `O[C@H]1[C@H]2[C@H](O)CCCN2C[C@H]1O` [swainsonine]: the inhibition at 230 µM in assay [1] (Homo sapiens, KG-1a, KG1a neuraminidase then recovery in 0.23 mM, read-out: % Inhibition (lymphocyte binding)) came to 74%. In addition, the “Mean Lymphocyte Binding” value in assay [1] (KG1a neuraminidase then recovery in 0.23 mM) came to 60.7. Further, the “de novo synthesized HECA-452 epitopes on PSGL-1 (Western blot)” value (from here on “de novo synthesized HECA-452 epitopes”) in assay [2] is “not affected”.

In the case of tunicamycin, in assay [1], the “relative potency as inhibitor of HCELL activity” value is “more potent inhibitor of HCELL activity than both swainsonine and 4-F-GlcNAc”. The “WGA staining of lysates” value in assay [3] was “eliminated”. For the same compound, in assay [2], the “de novo synthesized HECA-452 epitopes” value is “marked reduction” and the “potency at lowering HECA-452 expression relative to 4-F-GlcNAc, on a molar basis” value is given as 2.5 fold. Besides, the “effects on HECA-452 expression” value in assay [2] (below 0.015 mM, preliminary, data not shown) is reported as “minimal effects”.

Turning to `CC(=O)N[C@H]1C(O)O[C@H](CO)[C@@H](O)[C@@H]1O` (some centres unmarked) [GlcNAc, N-acetylglucosamine], in assay [2] (setting [4]), the “de novo synthesized HECA-452 epitopes” value was “not affected”.

As to `CC(=O)N[C@H]1C(OC(C)=O)O[C@H](COC(C)=O)[C@@H](F)[C@@H]1OC(C)=O` (stereo partly drawn) [4-F-GlcNAc, 2-acetamido-2-deoxy-1,3,6-tri-O-acetyl-4-deoxy-4-fluoro-D-glucopyranose], in assay [1], the “relative potency as inhibitor of HCELL activity” value is listed as “more potent inhibitor of HCELL activity”. Also, in assay [1] (Homo sapiens, KG-1a, KG1a neuraminidase then recovery in 0.05 mM, read-out: % Inhibition (lymphocyte binding)), the inhibition at 50 µM worked out at 60%. In assay [1] (Homo sapiens, KG-1a, KG1a neuraminidase then recovery in 0.1 mM, read-out: % Inhibition (lymphocyte binding)), the inhibition at 100 µM is 78%. In assay [1] (Homo sapiens, KG-1a, KG1a neuraminidase then recovery in 0.5 mM, read-out: % Inhibition (lymphocyte binding)), the inhibition at 500 µM came to 94%. Moreover, the “Mean Lymphocyte Binding” value in assay [1] (KG1a neuraminidase then recovery in 0.05 mM) amounted to 93.6; in assay [1] (KG1a neuraminidase then recovery in 0.1 mM), 50.6; in assay [1] (KG1a neuraminidase then recovery in 0.5 mM), 15.4. In assay [3], the “WGA staining of lysates” value was “elevated”. The “potency at lowering HECA-452 expression relative to BAG, on a molar basis” value in assay [2] is listed as “more potent than BAG”. Also, the “de novo synthesized HECA-452 epitopes” value in assay [2] (setting [4]) is reported as “marked reduction”. Moreover, the “duration of suppression of HECA-452 expression on PSGL-1 after removal of drug” value in assay [2] (treated for 30 h then re-cultured in non-4-F-GlcNAc-containing medium for 72 h) was found to be 48 h.

Values taken from patent US7098195B2, “Fluorinated glucosamine analogs useful for modulating post-translational glycosylations on cells” (Health Research, Inc., priority 2001, dated 2006).
